Test results published in ChEMBL document CHEMBL1128169, “Thiourea analogues of resiniferatoxin as ligands for the vanilloid receptor” (Bioorg Med Chem Lett, 1995).

Target: Transient receptor potential cation channel subfamily V member 1 (Homo sapiens, UniProt Q8NER1)
Experiment: Displacement of [3H]RTX binding from vanilloid receptor

Sequence of Transient receptor potential cation channel subfamily V member 1 (Q8NER1 whole entry): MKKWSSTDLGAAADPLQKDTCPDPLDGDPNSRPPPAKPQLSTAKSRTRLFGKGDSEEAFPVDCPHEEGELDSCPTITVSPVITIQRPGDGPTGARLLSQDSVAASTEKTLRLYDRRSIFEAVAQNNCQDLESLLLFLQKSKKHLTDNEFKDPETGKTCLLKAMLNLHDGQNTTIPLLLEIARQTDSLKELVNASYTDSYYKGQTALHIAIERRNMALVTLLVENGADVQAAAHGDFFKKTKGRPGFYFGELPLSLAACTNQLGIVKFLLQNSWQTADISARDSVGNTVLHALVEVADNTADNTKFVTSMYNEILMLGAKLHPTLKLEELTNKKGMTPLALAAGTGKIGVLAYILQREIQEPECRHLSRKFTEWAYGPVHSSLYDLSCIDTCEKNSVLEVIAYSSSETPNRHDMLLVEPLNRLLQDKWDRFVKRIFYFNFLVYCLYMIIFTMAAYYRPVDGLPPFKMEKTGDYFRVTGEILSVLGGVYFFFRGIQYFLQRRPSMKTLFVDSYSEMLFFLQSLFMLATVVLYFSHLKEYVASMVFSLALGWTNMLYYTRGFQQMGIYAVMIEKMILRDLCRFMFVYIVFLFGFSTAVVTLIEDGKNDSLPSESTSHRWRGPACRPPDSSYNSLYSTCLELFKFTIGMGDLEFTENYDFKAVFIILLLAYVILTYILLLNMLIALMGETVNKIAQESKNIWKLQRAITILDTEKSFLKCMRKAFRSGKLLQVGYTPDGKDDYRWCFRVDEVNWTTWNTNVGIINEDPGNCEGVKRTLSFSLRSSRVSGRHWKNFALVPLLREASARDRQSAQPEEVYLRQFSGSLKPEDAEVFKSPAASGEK

Compound: C=C(C)[C@]12C[C@@H](C)[C@@]34OC(Cc5ccccc5)(O[C@@H]1[C@@H]3C=C(C/N=C(\S)Nc1ccc(O)c(OC)c1)C[C@]1(O)C(=O)C(C)=C[C@@H]41)O2
- Ki: 66.1 nM

Compound: C=C(C)[C@]12C[C@@H](C)[C@@]34OC(Cc5ccccc5)(O[C@@H]1[C@@H]3C=C(CNC(=S)NCc1ccc(O)c(OC)c1)C[C@]1(O)C(=O)C(C)=C[C@@H]41)O2
- Ki: 149 nM

Compound: C=C(C)[C@]12C[C@@H](C)[C@@]34O[C@](Cc5ccccc5)(O[C@@H]1[C@@H]3C=C(COC(=O)Cc1ccc(O)c(OC)c1)C[C@]1(O)C(=O)C(C)=CC41)O2 (single isomer, unassigned) [RESINIFERATOXIN]
- Ki: 23.1 nM
